# Data reported in patent US20220280594A1, “APPLICATION OF POLYPEPTIDE OR DERIVATIVE THEREOF” (CHENGDU HUITAI BIOMEDICINE CO., LTD., priority 2019, published 2022).
# Ends that are not written are not given here. PEG = not defined here
# Columns and labels:
# [1] = system: human pancreatic cancer cells (PANC-1); experiment: transwell migration assay, PANC-1 cells; assay type: cell-based; details: PANC-1 transwell migration, 10 μM, 24 hours; control group 360 ± 60
# Method: The Transwell chamber system was used in the transwell cell migration experiment. The chamber has an upper layer and a lower layer, which are separated by an artificial semipermeable membrane in the middle. Cells that have migrated through the semi-permeable membrane will attach to the lower surface of the semi-permeable membrane. The migration ability is evaluated by counting the number of cells on the lower surface of the semi-permeable membrane. The number of cells that have migrated is negatively correlated with the inhibitory effect of the drug on the migration ability of the tumor cells. Transwell migration assay was performed as follows: tumor cells were cultured in vitro, cells in logarithmic growth phase were collected, and cell suspension was prepared with fresh serum-free medium at a density of 2-3×10^5 cells/mL. Cells were inoculated, 100 μL/well cell suspension (serum-free medium) in the upper chamber and 600 μL/well complete culture medium in the lower chamber. After incubated in 37° C., 5% CO2 incubator for 4-5 hours, serum-free medium (100 μL/well) was added to the control group, and serum-free medium containing polypeptide or derivative thereof (N1-N54) was added to the upper chamber of the treatment group (100 μL/well), the final concentration of the peptide or derivative thereof in the upper chamber was 10 μM. The cells were incubated continuously for 24 hours, and then fixed with methanol and stained with crystal violet. Images were taken under a microscope and the number of migrated cells was counted with ImageJ.
# This example was a transwell cell migration experiment to evaluate the inhibitory effect of the polypeptide or derivative thereof (N1-N54) on the migration ability of human pancreatic cancer cells (PANC-1). The experimental method was as described in Example 3.
# [2] = system: human lung squamous carcinoma cells (NCI-H226); experiment: scratch assay, migration of NCI-H226 cells; assay type: cell-based; details: NCI-H226, 10 μM, 48 hours; control group 65.31 ± 3.19
# Method: (§1) In the scratch assay, the cell migration rate was negatively correlated with the inhibitory effect of the drug component on tumor cell migration ability. The cell migration inhibition experiment was described as follows: tumor cells were cultured in vitro, cells in logarithmic growth phase were collected and seeded evenly in a 24-well plate at a density of 1-2×10^5 cells/well; the cells were cultured in a cell incubator until a monolayer was formed; a scratch tool was used to make a “-” (straight) scratch on the monolayer of cells; the cells were washed 1-3 times with PBS, and a medium (with 2% fetal bovine serum) containing specific test components was added to the culture. Experimental grouping: PBS control group; polypeptide or derivative thereof treatment group (N1-N54), 10 μM. Three independent parallel wells were set up in each group, and the cells were cultured continuously in a cell incubator for 48 hours. […] At least 3 representative images for each well were taken. ImageJ software was used to count the migration distance of the cells, and the cell migration rate was calculated as: cell migration rate (%)=(width of original scratch−width of current scratch)/width of original scratch×100.
# This example was a scratch assay to evaluate the inhibitory effect of the polypeptide or derivative thereof (N1-N54) on the migration ability of human lung squamous carcinoma cells (NCI-H226). The experimental method was as described in Example 2.
# [3] = system: human lung cancer cells (95D); experiment: scratch assay, migration of 95D cells; assay type: cell-based; details: 10 μM, 48 hours, control group 55.3 ± 3.19
# Method: as §1
# This example was a scratch assay to evaluate the inhibitory effect of the polypeptide or derivative thereof (N1-N54) on the migration ability of human lung cancer cells (95D). The experimental method was as described in Example 2.
# [4] = system: human lung cancer cells (A549) subcutaneous xenograft; experiment: lung cancer subcutaneous xenograft animal model, intravenous injection; assay type: in vivo, mice (BALB/c-nu/nu); details: intravenous 60 mg/kg once every other day, 20 days; for Weight of tumor (g) (mean ± SD): control 2.53 ± 0.17; for Volume of tumor (mm^3) (mean ± SD): control 3373.26 ± 581.44
# Method: Experimental animals: 4-6 weeks old female immunodeficiency mice (BALB/c-nu/nu, Beijing Vital River Laboratory Animal Technology Co., Ltd.).
# Subcutaneous xenograft animal model. The number of cells inoculated subcutaneously vin mice was about 2×10^6/200 μL. When the volume of the subcutaneous tumor was greater than 100 mm^3, the mice were randomly divided into groups and subjected to treatment. When the mass volume of the tumors in model control group reached 2000 mm^3 or the animal dies, the treatment ended. The animals were dissected, the tumors were taken out, and the weight and volume of the tumors were measured. During the period of the entire experiment, the mice were observed and the body weight was measured every other day.
# The method used in the efficacy test on the lung cancer subcutaneous xenograft animal model was as described in Example 5. The lung cancer cells were the human lung cancer cells (A549), and the route of administration was intravenous injection. This example involved a total of 3 experiments to evaluate N1-N15, N16-N30, and N31-N54 respectively. The experimental procedure, route of administration, dosage and frequency of administration, and detection method were all consistent in the three experiments. The experimental groups were model control group and polypeptide or derivative thereof treatment groups (N1-N15, N16-N30, or N31-N54). The drug dosage of the N1-N54 treatment groups was 60 mg/kg, and the treatment time was 20 days.
# [5] = system: human pancreatic cancer cells (PANC-1); experiment: transwell invasion assay, PANC-1 cells; assay type: cell-based; details: PANC-1 transwell invasion, 10 μM, 24 hours; control group 727 ± 68
# Text: The Transwell chamber system was used in the transwell cell invasion experiment. The chamber has an upper layer and a lower layer, which are separated by an artificial semipermeable membrane in the middle. The upper surface of the semipermeable membrane is coated with a layer of artificial matrigel to simulate extracellular matrix. Cells that have invaded through the matrigel and semi-permeable membrane will attach to the lower surface of the semi-permeable membrane. The invasion ability is evaluated by counting the number of cells on the lower surface of the semi-permeable membrane. The number of cells that have invaded is negatively correlated with the inhibitory effect of the drug on the invasion ability of the tumor cells. Transwell invasion assay was performed as follows: tumor cells were cultured in vitro, cells in logarithmic growth phase were collected, and cell suspension was prepared with fresh serum-free medium at a density of 2-3×10^5 cells/mL. Cells were inoculated, 100 μL/well cell suspension (serum-free medium) in the upper chamber and 600 μL/well complete culture medium in the lower chamber. After incubated in 37° C., 5% CO2 incubator for 4-5 hours, serum-free medium (100 μL/well) was added to the control group, and serum-free medium containing polypeptide or derivative thereof (N1-N54) was added to the upper chamber of the treatment group (100 μL/well), the final concentration of the peptide or derivative thereof in the upper chamber was 10 μM. The cells were incubated continuously for 24 hours, and then fixed with methanol and stained with crystal violet. Images were taken under a microscope and the number of invaded cells was counted with ImageJ.
# This example was the transwell cell invasion experiment to evaluate the inhibitory effect of the polypeptide or derivative thereof (N1-N54) on the invasion ability of human pancreatic cancer cells (PANC-1). The experimental method was as described in Example 4.
# [6] = system: human thyroid cancer cells (FRO); experiment: scratch assay, migration of FRO cells; assay type: cell-based; details: 10 μM, 48 hours, control group 60.34 ± 8.32
# Method: as §1
# This example was a scratch assay to evaluate the inhibitory effect of the polypeptide or derivative thereof (N1-N54) on the migration ability of human thyroid cancer cells (FRO). The experimental method was as described in Example 2.
Substance,"Number of cells (mean ± SD, P), migrated cells [1]","Migration rate (%) (mean ± SD, P) [2]","Migration rate (%) (mean ± SD, P) [3]",Weight of tumor (g) (mean ± SD) [4],Volume of tumor (mm^3) (mean ± SD) [4],"Number of cells (mean ± SD, P), invaded cells [5]","Migration rate (%) (mean ± SD, P) [6]"
N11: SEQ ID NO: 1 with deletion of positions 15-18 and 1-3 and PEG modification at the amino terminal ({PEG}-RFLAKENVTQD; reading uncertain),"239 ± 26,*","21.77 ± 5.03,*** %","28.28 ± 3.68,*** %",1.3 ± 0.23,1419.28 ± 615.42,"66 ± 14,****","10.09 ± 4.33,*** %"
N12: SEQ ID NO: 1 with deletion of position 18 and positions 1-2 (VRFLAKENVTQDAED),"246 ± 14,*","13.18 ± 6.31,*** %","28.72 ± 2.96,** %",0.85 ± 0.19,1275.34 ± 221.5,"180 ± 17,****","7.67 ± 3.29,*** %"
N13: SEQ ID NO: 1 with deletion of positions 15-18 and positions 1-5 (LAKENVTQD),"255 ± 24,*","11.29 ± 8.97,*** %","21.2 ± 4.41,*** %",0.8 ± 0.17,1320.14 ± 147.22,"161 ± 19,****","11.99 ± 2.39,*** %"
N14: SEQ ID NO: 1 with deletion of positions 1-5 and addition of one amino acid at the carboxyl terminal (LAKENVTQDAEDNC),"263 ± 16,*","19.97 ± 2.94,*** %","32.55 ± 5.71,** %",0.7 ± 0.26,1431.61 ± 215.71,"157 ± 37,****","14.09 ± 2.47,*** %"
N15: SEQ ID NO: 1 with substitution N18R and addition of one amino acid to the carboxyl terminal (YRVRFLAKENVTQDAEDRC),"220 ± 18,**","35.05 ± 3.95,** %","24.09 ± 6.40,** %",0.95 ± 0.18,1307.48 ± 416.26,"104 ± 9,****","8.84 ± 2.27,*** %"
N16: SEQ ID NO: 1 with substitution A7R and addition of one amino acid at the carboxyl terminus (YRVRFLRKENVTQDAEDNC),"230 ± 28,*","21.10 ± 8.01,*** %","17.00 ± 8.00,** %",1.05 ± 0.26,1442.4 ± 293.63,"128 ± 25,****","11.72 ± 4.41,*** %"
N17: SEQ ID NO: 1 with addition of two amino acids to the carboxyl terminal (YRVRFLAKENVTQDAEDNCT),"244 ± 14,*","43.38 ± 4.83,** %","18.31 ± 8.26,** %",0.9 ± 0.16,1301.58 ± 329.64,"95 ± 6,****","11.38 ± 2.27,*** %"
N18: SEQ ID NO: 1 with addition of one amino acid at the amino terminal and one at the carboxyl terminal (FYRVRFLAKENVTQDAEDNC),"232 ± 24,*","48.17 ± 3.85,** %","25.71 ± 4.05,*** %",1.3 ± 0.24,1161.51 ± 297.07,"118 ± 14,****",22.96 ± 5.05%
N19: SEQ ID NO: 1 with deletion of positions 1-5 and 15-18 and addition of two amino acids at the carboxyl terminal (LAKENVTQDRC),"238 ± 27,*","16.80 ± 8.02,*** %","42.04 ± 5.90,* %",0.81 ± 0.19,1235.44 ± 432.58,"213 ± 20,****","25.59 ± 4.08,** %"
N20: SEQ ID NO: 1 with addition of one amino acid at the amino terminal and deletion of position 18 (RYRVRFLAKENVTQDAED),"244 ± 23,*","19.54 ± 6.51,*** %","43.15 ± 5.46,* %",0.56 ± 0.18,1072.16 ± 390.44,"273 ± 12,****","24.03 ± 8.61,* %"
